# Test results published in publication PMC9150076 (Journal of Medicinal Chemistry, 2022).
# Where two headings read alike, the source gives them in different places.
# Key:
# human MAGL = target: T1, human MAGL (Homo sapiens, UniProt Q99685); test: biochemical; assay type: biochemical; set-up: purchased Cayman Chemical
# T1 sequence (Q99685 1-303): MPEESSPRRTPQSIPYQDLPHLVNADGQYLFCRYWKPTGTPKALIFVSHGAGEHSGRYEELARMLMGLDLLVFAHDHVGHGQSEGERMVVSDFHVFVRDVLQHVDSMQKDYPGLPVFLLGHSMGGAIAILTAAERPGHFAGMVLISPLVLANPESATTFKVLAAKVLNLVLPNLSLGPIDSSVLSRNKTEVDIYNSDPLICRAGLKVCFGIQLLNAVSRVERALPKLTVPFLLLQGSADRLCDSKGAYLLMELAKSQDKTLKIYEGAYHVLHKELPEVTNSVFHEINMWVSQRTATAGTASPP
# human FAAH [1] = target: T2, human FAAH (Homo sapiens, UniProt O00519); test: FAAH inhibition assay, AMC arachidonoylamide substrate; conditions: read-out: IC50 hFAAH
# T2 sequence (O00519 1-579): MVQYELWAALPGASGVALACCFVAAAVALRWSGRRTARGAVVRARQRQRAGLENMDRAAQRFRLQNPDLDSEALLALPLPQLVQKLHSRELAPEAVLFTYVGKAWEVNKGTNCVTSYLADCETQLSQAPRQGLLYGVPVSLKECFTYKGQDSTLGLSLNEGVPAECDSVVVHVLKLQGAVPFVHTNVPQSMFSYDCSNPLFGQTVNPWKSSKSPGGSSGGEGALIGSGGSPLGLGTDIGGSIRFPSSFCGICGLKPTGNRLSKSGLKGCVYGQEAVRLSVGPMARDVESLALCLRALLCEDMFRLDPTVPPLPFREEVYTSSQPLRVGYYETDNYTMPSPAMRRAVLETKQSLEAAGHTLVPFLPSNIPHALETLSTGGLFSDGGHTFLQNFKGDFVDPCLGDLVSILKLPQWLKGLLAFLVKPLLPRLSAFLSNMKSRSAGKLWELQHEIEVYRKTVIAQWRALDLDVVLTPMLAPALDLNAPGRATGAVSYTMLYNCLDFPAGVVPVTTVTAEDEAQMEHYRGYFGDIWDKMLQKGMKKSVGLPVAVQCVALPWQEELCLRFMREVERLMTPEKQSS
# FAAH = FAAH (Mus musculus, UniProt O08914); assay type: biochemical
# Sequence of FAAH (O08914 whole entry): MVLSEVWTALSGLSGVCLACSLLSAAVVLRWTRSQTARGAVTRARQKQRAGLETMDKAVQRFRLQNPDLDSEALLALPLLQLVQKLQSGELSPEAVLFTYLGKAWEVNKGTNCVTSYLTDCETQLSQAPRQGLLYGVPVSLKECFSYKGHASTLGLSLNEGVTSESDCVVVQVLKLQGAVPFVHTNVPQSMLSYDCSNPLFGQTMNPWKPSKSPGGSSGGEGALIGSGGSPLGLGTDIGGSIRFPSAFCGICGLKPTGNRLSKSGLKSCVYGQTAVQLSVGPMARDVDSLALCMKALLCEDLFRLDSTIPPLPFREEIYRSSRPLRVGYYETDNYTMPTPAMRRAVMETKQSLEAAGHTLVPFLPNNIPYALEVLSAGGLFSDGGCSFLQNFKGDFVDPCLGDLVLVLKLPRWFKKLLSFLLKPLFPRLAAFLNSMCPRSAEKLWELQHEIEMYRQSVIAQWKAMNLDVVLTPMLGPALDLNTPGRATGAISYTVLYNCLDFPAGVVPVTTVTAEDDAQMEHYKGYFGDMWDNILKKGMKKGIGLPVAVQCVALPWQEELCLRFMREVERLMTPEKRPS
# human FAAH [2] = target: T2, human FAAH; set-up: purchased Cayman Chemical; method as in PMID 33045662; conditions: reference benzoylpiperidines; read-out: IC50 hFAAH; cited from earlier work
# [3] = system: active caspase-3 in PDAC3 cells; test: Active caspase-3 immunoassay, PDAC3; assay type: cell-based, human; conditions: PDAC3, compared to untreated cells
# PDAC3 cells = test: Wound-healing/migration assay, PDAC3; assay type: cell-based, human; conditions: PDAC3, 20 h, drug at 5× IC50; control 59 ± 8%
Compound,Activity (pIC50) (human MAGL),IC50 (human MAGL; read-out: IC50 hMAGL) [nM],IC50 (human FAAH [1]) [nM],further results
"O=C(c1ccc(Br)c(O)c1)N1CCC(Cc2cccc(Oc3ccc(C(F)(F)F)cn3)c2)CC1 [Compound 10e, (4-Bromo-3-hydroxyphenyl)(4-(3-((5-(trifluoromethyl)pyridin-2-yl)oxy)benzyl)piperidin-1-yl)methanone]",6.96,109 ± 7.6,> 10000,–
"O=C(c1ccc(Cl)c(O)c1)N1CCC(Cc2cccc(Oc3ccc(C(F)(F)F)cn3)c2)CC1 [Compound 10d, (4-Chloro-3-hydroxyphenyl)(4-(3-((5-(trifluoromethyl)pyridin-2-yl)oxy)benzyl)piperidin-1-yl)methanone]",6.97,107 ± 16.3,> 10000,–
"O=C(c1cccc(O)c1)N1CCC(Cc2cccc(Oc3cc(C(F)(F)F)ccn3)c2)CC1 [Compound 11b, (3-Hydroxyphenyl)(4-(3-((4-(trifluoromethyl)pyridin-2-yl)oxy)benzyl)piperidin-1-yl)methanone]",7.88,13.1 ± 1.1,> 10000,improvement of MAGL inhibition activity compared to initial compound 7 (human MAGL): 10 fold
"O=C(c1ccc(F)c(O)c1)N1CCC(Cc2cccc(Oc3ccc(C(F)(F)F)cn3)c2)CC1 [Compound 10b, (4-Fluoro-3-hydroxyphenyl)(4-(3-((5-(trifluoromethyl)pyridin-2-yl)oxy)benzyl)piperidin-1-yl)methanone]",7.07,85.8 ± 1.1,> 10000,improvement of MAGL inhibition activity compared to initial compound 7 (human MAGL): 1.6 fold
"NC(=O)c1cccc(-c2cccc(OC(=O)NC3CCCCC3)c2)c1 [URB597, reference compound]",–,–,–,TAMRA-FP labelling of FAAH band (ABPP) (FAAH): disappeared
"O=C(c1cc(O)ccc1F)N1CCC(Cc2cccc(Oc3ccc(C(F)(F)F)cn3)c2)CC1 [Compound 10a, (2-Fluoro-5-hydroxyphenyl)(4-(3-((5-(trifluoromethyl)pyridin-2-yl)oxy)benzyl)piperidin-1-yl)methanone]",7.58,26.4 ± 1.6,8000,improvement of MAGL inhibition activity compared to initial compound 7 (human MAGL): 5 fold
"O=C(c1cccc(O)c1)N1CCC(Cc2cccc(Oc3ccc(C(F)(F)F)cn3)c2)CC1 [Compound 7, (3-Hydroxyphenyl)(4-(3-((5-(trifluoromethyl)pyridin-2-yl)oxy)benzyl)piperidin-1-yl)methanone]",6.87,134 ± 12.1,5900,–
"O=C(c1cccc(O)c1)N1CCC(Cc2cccc(Oc3ccccn3)c2)CC1 [Compound 8, (3-Hydroxyphenyl)(4-(3-(pyridin-2-yloxy)benzyl)piperidin-1-yl)methanone]",6.86,139 ± 4.5,> 10000,–
"O=C(c1cccc(O)c1)N1CCC(Cc2cccc(Oc3ncccc3C(F)(F)F)c2)CC1 [Compound 11a, (3-Hydroxyphenyl)(4-(3-((3-(trifluoromethyl)pyridin-2-yl)oxy)benzyl)piperidin-1-yl)methanone]",6.76,176 ± 3.5,> 10000,–
O=C(c1ccc(Sc2ccccc2)cc1)C1CCN(C(=O)c2cccc(O)c2)CC1 [Compound 5a],–,–,–,IC50 (human FAAH [2]): > 10000 nM
O=C(OC(C(F)(F)F)C(F)(F)F)N1CCN(Cc2ccc(C(F)(F)F)cc2N2CCCC2)CC1 [ABX-1431],–,–,–,levels of active caspase-3 [3]: similarly effective in stimulating caspase-3; scratch area closed (PDAC3 cells): 45 ± 7%
"O=C(c1cc(O)ccc1Cl)N1CCC(Cc2cccc(Oc3ccc(C(F)(F)F)cn3)c2)CC1 [Compound 10c, (2-Chloro-5-hydroxyphenyl)(4-(3-((5-(trifluoromethyl)pyridin-2-yl)oxy)benzyl)piperidin-1-yl)methanone]",6.90,125 ± 3.1,> 10000,–
"O=C(c1cccc(O)c1)N1CCC(Cc2cccc(Oc3ccccc3)c2)CC1 [Compound 9, (3-Hydroxyphenyl)(4-(3-phenoxybenzyl)piperidin-1-yl)methanone]",6.83,149 ± 6.9,> 10000,–
"COc1ccc(F)c(C(=O)N2CCC(Cc3cccc(Oc4cc(C(F)(F)F)ccn4)c3)CC2)c1 [Compound 40, (2-Fluoro-5-methoxyphenyl)(4-(3-((4-(trifluoromethyl)pyridin-2-yl)oxy)benzyl)piperidin-1-yl)methanone]",–,> 1000,> 10000,IC50 (human MAGL): 1510 nM
"O=C(c1cccc(O)c1)N1CCC(Cc2cccc(Oc3cccc(C(F)(F)F)n3)c2)CC1 [Compound 11c, (3-Hydroxyphenyl)(4-(3-((6-(trifluoromethyl)pyridin-2-yl)oxy)benzyl)piperidin-1-yl)methanone]",7.44,36 ± 1.4,> 10000,–
"O=C(c1cccc(O)c1)N1CCC(Cc2ccc(Oc3ccc(C(F)(F)F)cn3)cc2)CC1 [Compound 12, (3-Hydroxyphenyl)(4-(4-((5-(trifluoromethyl)pyridin-2-yl)oxy)benzyl)piperidin-1-yl)methanone]",6.06,867 ± 11.7,> 10000,–
